Results published in PubChem BioAssay (NCI).
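The compound was tested at five concentrations on cells cultured in 96-well plates, with a 48-hour exposure period. TGI denotes the concentration required for complete inhibition of growth.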

Assays:
Assay in all cases: inhibition of tumour cell growth, NCI panel, 48 h
[1] = system: SF-539 CNS
[2] = system: UACC-62 melanoma
[3] = system: OVCAR-5 ovarian
[4] = system: HCT-15 colon
[5] = system: COLO 205 colon
[6] = system: RXF 393 renal
[7] = system: MOLT-4 leukemia
[8] = system: MALME-3M melanoma
[9] = system: LOX IMVI melanoma
[10] = system: SK-OV-3 ovarian
[11] = system: UO-31 renal
[12] = system: UACC-257 melanoma
[13] = system: SNB-75 CNS
[14] = system: OVCAR-3 ovarian
[15] = system: MDA-MB-435
[16] = system: HCT-116 colon
[17] = system: U251 CNS
[18] = system: A549 NSCLC
[19] = system: HOP-62 NSCLC

| SMILES | TGI [1] | TGI [2] | TGI [3] | TGI [4] | TGI [5] | TGI [6] | TGI [7] | TGI [8] | TGI [9] | TGI [10] | TGI [11] | TGI [12] | TGI [13] | TGI [14] | TGI [15] | TGI [16] | TGI [17] | TGI [18] | TGI [19] |
| --- | --- | --- | --- | --- | --- | --- | --- | --- | --- | --- | --- | --- | --- | --- | --- | --- | --- | --- | --- |
| CC(=O)OC(=C(C#N)C#N)c1nccnc1C(=O)O | > 100 µM | > 100 µM | > 100 µM | > 100 µM | > 100 µM | > 100 µM | > 100 µM | > 100 µM | > 100 µM | > 100 µM | > 100 µM | > 100 µM | > 100 µM | > 100 µM | > 100 µM | > 100 µM | > 100 µM | > 100 µM | – |
| CCC(C#N)NCc1ccc(CNC(C#N)CC)cc1 (configuration not stated) | > 100 µM | > 100 µM | > 100 µM | > 100 µM | > 100 µM | > 100 µM | > 100 µM | > 100 µM | > 100 µM | > 100 µM | > 100 µM | > 100 µM | – | > 100 µM | > 100 µM | > 100 µM | > 100 µM | > 100 µM | – |
| O=C1OCCC12CN(Cc1ccccc1)N=N2 (configuration not stated) | > 100 µM | > 100 µM | > 100 µM | > 100 µM | > 100 µM | > 100 µM | > 100 µM | > 100 µM | – | > 100 µM | > 100 µM | – | – | > 100 µM | > 100 µM | > 100 µM | > 100 µM | > 100 µM | > 100 µM |
| Cc1nc2ccc(F)cc2c2c1CCN2c1ccccc1 | 44 µM | 27.4 µM | – | > 100 µM | 27.1 µM | 35.7 µM | 52.4 µM | 40.8 µM | 27.6 µM | – | 68.1 µM | 40.1 µM | 79.1 µM | > 100 µM | 32.8 µM | 23.2 µM | 78.9 µM | 68 µM | > 100 µM |
| COc1cc2c(NCCN(C)C)nc3c4cc5c(cc4ccc3c2cc1OC)OCO5 | 7.73 µM | 8.41 µM | 6.71 µM | 6.56 µM | 5.82 µM | 7.3 µM | 5.3 µM | 7.78 µM | – | 8.65 µM | 7.05 µM | 7.98 µM | 5.39 µM | – | 6.79 µM | 6.77 µM | 7.83 µM | 6.67 µM | 7.09 µM |
| O=C(CC(C(=O)c1cccs1)c1ccsc1)c1ccc(Cl)cc1 (configuration not stated) | > 100 µM | > 100 µM | > 100 µM | > 100 µM | > 100 µM | – | > 100 µM | > 100 µM | > 100 µM | > 100 µM | > 100 µM | > 100 µM | > 100 µM | – | > 100 µM | > 100 µM | > 100 µM | > 100 µM | > 100 µM |
| CSc1ccc(/C=C/C(=O)c2nc3ccccc3[nH]2)cc1 | > 100 µM | 36.2 µM | 88.2 µM | 40.6 µM | 96 µM | – | 18.6 µM | > 100 µM | 45.9 µM | > 100 µM | 19.9 µM | 67.1 µM | 43.8 µM | 40.5 µM | 35.8 µM | 31.4 µM | – | 98.6 µM | 82.1 µM |
| O=S(Nc1ccccc1)c1ccccc1Oc1ccccc1 (configuration not stated) | 35.6 µM | – | > 100 µM | > 100 µM | > 100 µM | > 100 µM | > 100 µM | > 100 µM | > 100 µM | – | > 100 µM | > 100 µM | > 100 µM | > 100 µM | > 100 µM | > 100 µM | > 100 µM | > 100 µM | > 100 µM |
| O=C(O)c1[nH]c(=O)[nH]c(=O)c1CN1CCCCC1 | – | > 100 µM | > 100 µM | > 100 µM | > 100 µM | > 100 µM | – | > 100 µM | > 100 µM | > 100 µM | > 100 µM | > 100 µM | > 100 µM | > 100 µM | > 100 µM | > 100 µM | > 100 µM | > 100 µM | > 100 µM |
| Cc1ccc2c(=O)cc(-c3cc4ccccc4s3)[nH]c2n1 | – | > 100 µM | > 100 µM | > 100 µM | > 100 µM | 97.2 µM | > 100 µM | > 100 µM | > 100 µM | > 100 µM | 0.17 µM | > 100 µM | 67.6 µM | > 100 µM | > 100 µM | > 100 µM | > 100 µM | > 100 µM | > 100 µM |
| CN(C)CCn1c2c(c3ccccc31)CCc1ccccc1-2 | 26.2 µM | 25.9 µM | 31.7 µM | 22.5 µM | 25.6 µM | – | 29.1 µM | 30.5 µM | 32.2 µM | 32.7 µM | 26.8 µM | 27.7 µM | – | 27.7 µM | 37.7 µM | 26.3 µM | 26.8 µM | 28.3 µM | 29.1 µM |
| O=C1CCN=C(NC(=O)C(F)(F)F)N1CCc1c[nH]c2ccccc12 | > 100 µM | > 100 µM | > 100 µM | > 100 µM | > 100 µM | > 100 µM | > 100 µM | > 100 µM | > 100 µM | > 100 µM | > 100 µM | > 100 µM | – | > 100 µM | > 100 µM | > 100 µM | > 100 µM | > 100 µM | > 100 µM |
| CC[C@]1(Cc2ccc(OC)c(OC)c2)C=[N+]([O-])O[C@H](OC2CCCCC2c2ccccc2)[C@@H]1OC(C)=O (some centres not stated) | – | > 100 µM | > 100 µM | > 100 µM | 40.5 µM | 94.1 µM | 63 µM | > 100 µM | > 100 µM | > 100 µM | > 100 µM | > 100 µM | > 100 µM | > 100 µM | > 100 µM | > 100 µM | > 100 µM | > 100 µM | > 100 µM |
| CCCCCCCCCCCCCCCCOP(=O)(O)OP(=O)(O)OCC1OC(n2cnc3c(N)ncnc32)C(O)C1O (configuration not stated) | – | > 100 µM | 47.4 µM | > 100 µM | > 100 µM | > 100 µM | > 100 µM | > 100 µM | > 100 µM | > 100 µM | > 100 µM | > 100 µM | 61.8 µM | > 100 µM | > 100 µM | > 100 µM | > 100 µM | > 100 µM | > 100 µM |
